Data on 6 compounds can be found in ChEMBL document CHEMBL1146478, “Saponins from the bark of Nephelium maingayi” (J Nat Prod, 2004).

The subject of data set [1] is LNCaP. Nature of the data set: Cytotoxicity against human LNCAP cells. Type of data set: functional. Particulars: read-out: ED50 (the source's name).
Data set [2] concerns Lu1. Nature of the data set: Cytotoxicity against human Lu1 cells. Format: functional. Conditions: read-out: ED50 (the source's name).
Data set [3] can be described thus: Cytotoxicity against human HUVEC. Format: cell-based. Particulars: HUVEC cells, read-out: ED50 (the source's name).
Data set [4] concerns MCF7. Nature of the data set: Cytotoxicity against human MCF7 cells. Type of data set: functional. Conditions: read-out: ED50 (the source's name).

Molecules are shown by their SMILES. Values after ≈ are worked out from the molar mass of the structure shown.

`CC(=O)OC[C@H]1O[C@@H](O[C@@H]2[C@@H](O)[C@H](O[C@H]3CC[C@]4(C)[C@H]5CC=C6[C@@H]7CC(C)(C)CC[C@]7(CO)CC[C@@]6(C)[C@]5(C)CC[C@H]4C3(C)C)OC[C@H]2O)[C@H](O)[C@@H](O)[C@@H]1O`: the EC50 in data set [1], in data set [2] and in data set [4] was more than 20 µg/mL each time. The CC50 in data set [3] was more than 20 µg/mL.
In the case of `CC1(C)CC[C@]2(CO)CC[C@]3(C)C(=CC[C@@H]4[C@@]5(C)CC[C@H](O[C@@H]6O[C@H](CO)[C@@H](O)[C@H](O[C@@H]7OC[C@H](O)[C@H](O)[C@H]7O)[C@H]6O[C@@H]6O[C@H](CO)[C@@H](O)[C@H](O)[C@H]6O)C(C)(C)[C@@H]5CC[C@]43C)[C@@H]2C1` [NEPHELIOSIDE II], the EC50 in data set [1], in data set [2] and in data set [4] was more than 20 µg/mL throughout. The CC50 in data set [3] was more than 20 µg/mL.
Take `CO[C@@H]1C[C@H]2C(C)(C)[C@@H](O[C@@H]3O[C@H](CO)[C@@H](O)[C@H](O[C@@H]4OC[C@H](O)[C@H](O)[C@H]4O)[C@H]3O[C@@H]3O[C@H](CO)[C@@H](O)[C@H](O)[C@H]3O)CC[C@]2(C)[C@H]2CC=C3[C@@H]4CC(C)(C)CC[C@]4(CO)CC[C@@]3(C)[C@@]21C` [NEPHELIOSIDE IV]: the EC50 in data set [1], in data set [2] and in data set [4] was more than 20 µg/mL in each case. For the same compound, the CC50 in data set [3] is more than 20 µg/mL.
In the case of `CC1(C)CC[C@]2(CO)CC[C@]3(C)C(=CC[C@@H]4[C@@]5(C)CC[C@H](O[C@@H]6OC[C@@H](O)[C@H](O[C@@H]7OC[C@H](O)[C@H](O)[C@H]7O)[C@H]6O[C@@H]6O[C@H](CO)[C@@H](O)[C@H](O)[C@H]6O)C(C)(C)[C@@H]5CC[C@]43C)[C@@H]2C1` [NEPHELIOSIDE I], the EC50 is more than 20 µg/mL in data set [1], 19.5 µg/mL (≈ 22.4 µM) in data set [2] and more than 20 µg/mL in data set [4]. In addition, the CC50 in data set [3] was more than 20 µg/mL.
As to `CC1(C)CC[C@]2(C)[C@@H](O)C[C@]3(C)C(=CC[C@@H]4[C@@]5(C)CC[C@H](O[C@@H]6O[C@H](CO)[C@@H](O)[C@H](O[C@@H]7OC[C@H](O)[C@H](O)[C@H]7O)[C@H]6O[C@@H]6O[C@H](CO)[C@@H](O)[C@H](O)[C@H]6O)C(C)(C)[C@@H]5CC[C@]43C)[C@@H]2C1` [NEPHELIOSIDE VI], the EC50 in data set [1], in data set [2] and in data set [4] was more than 20 µg/mL in each case. Moreover, the CC50 in data set [3] is more than 20 µg/mL.
On to `CC1(C)CC[C@]2(C)[C@@H](O)C[C@]3(C)C(=CC[C@@H]4[C@@]5(C)CC[C@H](O[C@@H]6OC[C@@H](O)[C@H](O[C@@H]7OC[C@H](O)[C@H](O)[C@H]7O)[C@H]6O[C@@H]6O[C@H](CO)[C@@H](O)[C@H](O)[C@H]6O)C(C)(C)[C@@H]5CC[C@]43C)[C@@H]2C1` [NEPHELIOSIDE V], for which the EC50 in data set [1] was 11.7 µg/mL (≈ 13.5 µM); in data set [2], 13.6 µg/mL (≈ 15.6 µM); in data set [4], 13.9 µg/mL (≈ 16 µM). Also, the CC50 in data set [3] was found to be 17.7 µg/mL (≈ 20.4 µM).
